In ChEMBL document CHEMBL3046801, “Synthesis of 2-R1-2-(4-(2-fluoroethoxy)benzamido)acetate as potential PET imaging agents” (Med Chem Res, 2012):

Columns and labels:
Brain [1] = assay: Biodistribution in tumor bearing Mus musculus KM (mouse) brain at 60 min by microPET imaging analysis; format: ADME, organism-based; conditions: in vivo, 1 h
Heart [2] = assay: Biodistribution in tumor bearing Mus musculus KM (mouse) heart at 120 min by microPET imaging analysis; format: ADME, organism-based; conditions: in vivo, 2 h
Brain [3] = assay: Biodistribution in tumor bearing Mus musculus KM (mouse) brain at 30 min by microPET imaging analysis; format: ADME, organism-based; conditions: in vivo, 0.5 h
Kidney [4] = assay: Biodistribution in tumor bearing Mus musculus KM (mouse) kidney at 60 min by microPET imaging analysis; format: ADME, organism-based; conditions: in vivo, 1 h
Kidney [5] = assay: Biodistribution in tumor bearing Mus musculus KM (mouse) kidney at 120 min by microPET imaging analysis; format: ADME, organism-based; conditions: in vivo, 2 h
Spleen [6] = assay: Biodistribution in tumor bearing Mus musculus KM (mouse) spleen at 5 min by microPET imaging analysis; format: ADME, organism-based; conditions: in vivo
Muscle tissue [7] = assay: Biodistribution in tumor bearing Mus musculus KM (mouse) muscle at 30 min by microPET imaging analysis; format: ADME, organism-based; conditions: in vivo, 0.5 h
Tumour [8] = assay: Biodistribution in Mus musculus KM (mouse) tumor at 60 min by microPET imaging analysis; format: ADME, organism-based, Neoplasm; conditions: in vivo, 1 h
Blood [9] = assay: Biodistribution in tumor bearing Mus musculus KM (mouse) blood at 15 min by microPET imaging analysis; format: ADME, organism-based; conditions: in vivo, 0.25 h
Nucleic Acid [10] = assay: Ratio of drug uptake in tumor to muscle in Mus musculus KM (mouse) at 30 min; format: ADME, nucleic-acid assay; conditions: in vivo, 0.5 h
Lung [11] = assay: Biodistribution in tumor bearing Mus musculus KM (mouse) Lung at 60 min by microPET imaging analysis; format: ADME, organism-based; conditions: in vivo, 1 h
Blood [12] = assay: Biodistribution in tumor bearing Mus musculus KM (mouse) blood at 5 min by microPET imaging analysis; format: ADME, organism-based; conditions: in vivo
Blood [13] = assay: Biodistribution in tumor bearing Mus musculus KM (mouse) blood at 120 min by microPET imaging analysis; format: ADME, organism-based; conditions: in vivo, 2 h
Kidney [14] = assay: Biodistribution in tumor bearing Mus musculus KM (mouse) kidney at 5 min by microPET imaging analysis; format: ADME, organism-based; conditions: in vivo
Lung [15] = assay: Biodistribution in tumor bearing Mus musculus KM (mouse) Lung at 5 min by microPET imaging analysis; format: ADME, organism-based; conditions: in vivo
Blood [16] = assay: Biodistribution in tumor bearing Mus musculus KM (mouse) blood at 30 min by microPET imaging analysis; format: ADME, organism-based; conditions: in vivo, 0.5 h
Tumour [17] = assay: Biodistribution in Mus musculus KM (mouse) tumor at 15 min by microPET imaging analysis; format: ADME, organism-based, Neoplasm; conditions: in vivo, 0.25 h
Lung [18] = assay: Biodistribution in tumor bearing Mus musculus KM (mouse) Lung at 120 min by microPET imaging analysis; format: ADME, organism-based; conditions: in vivo, 2 h
Kidney [19] = assay: Biodistribution in tumor bearing Mus musculus KM (mouse) kidney at 15 min by microPET imaging analysis; format: ADME, organism-based; conditions: in vivo, 0.25 h
Muscle tissue [20] = assay: Biodistribution in tumor bearing Mus musculus KM (mouse) muscle at 15 min by microPET imaging analysis; format: ADME, organism-based; conditions: in vivo, 0.25 h
Heart [21] = assay: Biodistribution in tumor bearing Mus musculus KM (mouse) heart at 5 min by microPET imaging analysis; format: ADME, organism-based; conditions: in vivo
Heart [22] = assay: Biodistribution in tumor bearing Mus musculus KM (mouse) heart at 15 min by microPET imaging analysis; format: ADME, organism-based; conditions: in vivo, 0.25 h
Brain [23] = assay: Biodistribution in tumor bearing Mus musculus KM (mouse) brain at 5 min by microPET imaging analysis; format: ADME, organism-based; conditions: in vivo
Liver [24] = assay: Biodistribution in tumor bearing Mus musculus KM (mouse) liver at 5 min by microPET imaging analysis; format: ADME, organism-based; conditions: in vivo
Nucleic Acid [25] = assay: Ratio of drug uptake in tumor to muscle in Mus musculus KM (mouse) at 120 min; format: ADME; conditions: in vivo, 2 h
Muscle tissue [26] = assay: Biodistribution in tumor bearing Mus musculus KM (mouse) muscle at 120 min by microPET imaging analysis; format: ADME, organism-based; conditions: in vivo, 2 h
Spleen [27] = assay: Biodistribution in tumor bearing Mus musculus KM (mouse) spleen at 30 min by microPET imaging analysis; format: ADME, organism-based; conditions: in vivo, 0.5 h
Heart [28] = assay: Biodistribution in tumor bearing Mus musculus KM (mouse) heart at 30 min by microPET imaging analysis; format: ADME, organism-based; conditions: in vivo, 0.5 h
Liver [29] = assay: Biodistribution in tumor bearing Mus musculus KM (mouse) liver at 15 min by microPET imaging analysis; format: ADME, organism-based; conditions: in vivo, 0.25 h
Blood [30] = assay: Biodistribution in tumor bearing Mus musculus KM (mouse) blood at 60 min by microPET imaging analysis; format: ADME, organism-based; conditions: in vivo, 1 h
Nucleic Acid [31] = assay: Ratio of drug uptake in tumor to muscle in Mus musculus KM (mouse) at 60 min; format: ADME, nucleic-acid assay; conditions: in vivo, 1 h
Spleen [32] = assay: Biodistribution in tumor bearing Mus musculus KM (mouse) spleen at 60 min by microPET imaging analysis; format: ADME, organism-based; conditions: in vivo, 1 h
Tumour [33] = assay: Biodistribution in Mus musculus KM (mouse) tumor at 120 min by microPET imaging analysis; format: ADME, organism-based, Neoplasm; conditions: in vivo, 2 h
Nucleic Acid [34] = assay: Ratio of drug uptake in tumor to muscle in Mus musculus KM (mouse) at 15 min; format: ADME, nucleic-acid assay; conditions: in vivo, 0.25 h
Liver [35] = assay: Biodistribution in tumor bearing Mus musculus KM (mouse) liver at 60 min by microPET imaging analysis; format: ADME, organism-based; conditions: in vivo, 1 h
Tumour [36] = assay: Biodistribution in Mus musculus KM (mouse) tumor at 5 min by microPET imaging analysis; format: ADME, organism-based, Neoplasm; conditions: in vivo
Muscle tissue [37] = assay: Biodistribution in tumor bearing Mus musculus KM (mouse) muscle at 60 min by microPET imaging analysis; format: ADME, organism-based; conditions: in vivo, 1 h
Spleen [38] = assay: Biodistribution in tumor bearing Mus musculus KM (mouse) spleen at 15 min by microPET imaging analysis; format: ADME, organism-based; conditions: in vivo, 0.25 h
Liver [39] = assay: Biodistribution in tumor bearing Mus musculus KM (mouse) liver at 120 min by microPET imaging analysis; format: ADME, organism-based; conditions: in vivo, 2 h
Spleen [40] = assay: Biodistribution in tumor bearing Mus musculus KM (mouse) spleen at 120 min by microPET imaging analysis; format: ADME, organism-based; conditions: in vivo, 2 h
Heart [41] = assay: Biodistribution in tumor bearing Mus musculus KM (mouse) heart at 60 min by microPET imaging analysis; format: ADME, organism-based; conditions: in vivo, 1 h
Brain [42] = assay: Biodistribution in tumor bearing Mus musculus KM (mouse) brain at 120 min by microPET imaging analysis; format: ADME, organism-based; conditions: in vivo, 2 h
Lung [43] = assay: Biodistribution in tumor bearing Mus musculus KM (mouse) Lung at 15 min by microPET imaging analysis; format: ADME, organism-based; conditions: in vivo, 0.25 h
Muscle tissue [44] = assay: Biodistribution in tumor bearing Mus musculus KM (mouse) muscle at 5 min by microPET imaging analysis; format: ADME, organism-based; conditions: in vivo
Lung [45] = assay: Biodistribution in tumor bearing Mus musculus KM (mouse) Lung at 30 min by microPET imaging analysis; format: ADME, organism-based; conditions: in vivo, 0.5 h
Liver [46] = assay: Biodistribution in tumor bearing Mus musculus KM (mouse) liver at 30 min by microPET imaging analysis; format: ADME, organism-based; conditions: in vivo, 0.5 h
Brain [47] = assay: Biodistribution in tumor bearing Mus musculus KM (mouse) brain at 15 min by microPET imaging analysis; format: ADME, organism-based; conditions: in vivo, 0.25 h
Kidney [48] = assay: Biodistribution in tumor bearing Mus musculus KM (mouse) kidney at 30 min by microPET imaging analysis; format: ADME, organism-based; conditions: in vivo, 0.5 h
Tumour [49] = assay: Biodistribution in Mus musculus KM (mouse) tumor at 30 min by microPET imaging analysis; format: ADME, organism-based, Neoplasm; conditions: in vivo, 0.5 h

## OC[C@H]1OC(O)[C@H]([18F])[C@@H](O)[C@@H]1O (some centres undefined) [FLUDEOXYGLUCOSE F 18]
Brain [1]
  Drug uptake: 3.51 % ID/g
Heart [2]
  Drug uptake: 9.6 % ID/g
Brain [3]
  Drug uptake: 4.25 % ID/g
Kidney [4]
  Drug uptake: 0.9 % ID/g
Kidney [5]
  Drug uptake: 0.52 % ID/g
Spleen [6]
  Drug uptake: 1.92 % ID/g
Muscle tissue [7]
  Drug uptake: 2.08 % ID/g
Tumour [8]
  Drug uptake: 3.86 % ID/g
Blood [9]
  Drug uptake: 0.94 % ID/g
Nucleic Acid [10]
  Ratio: 1.52
Lung [11]
  Drug uptake: 1.52 % ID/g
Blood [12]
  Drug uptake: 2.01 % ID/g
Blood [13]
  Drug uptake: 0.15 % ID/g
Kidney [14]
  Drug uptake: 3.36 % ID/g
Lung [15]
  Drug uptake: 2.37 % ID/g
Blood [16]
  Drug uptake: 0.29 % ID/g
Tumour [17]
  Drug uptake: 2.97 % ID/g
Lung [18]
  Drug uptake: 1.05 % ID/g
Kidney [19]
  Drug uptake: 2.05 % ID/g
Muscle tissue [20]
  Drug uptake: 2.33 % ID/g
Heart [21]
  Drug uptake: 5.33 % ID/g
Heart [22]
  Drug uptake: 6.12 % ID/g
Brain [23]
  Drug uptake: 3.81 % ID/g
Liver [24]
  Drug uptake: 1.85 % ID/g
Nucleic Acid [25]
  Ratio: 1.74
Muscle tissue [26]
  Drug uptake: 1.85 % ID/g
Spleen [27]
  Drug uptake: 1.75 % ID/g
Heart [28]
  Drug uptake: 6.42 % ID/g
Liver [29]
  Drug uptake: 0.92 % ID/g
Blood [30]
  Drug uptake: 0.19 % ID/g
Nucleic Acid [31]
  Ratio: 1.94
Spleen [32]
  Drug uptake: 1.83 % ID/g
Tumour [33]
  Drug uptake: 3.12 % ID/g
Nucleic Acid [34]
  Ratio: 1.28
Liver [35]
  Drug uptake: 0.5 % ID/g
Tumour [36]
  Drug uptake: 1.96 % ID/g
Muscle tissue [37]
  Drug uptake: 1.99 % ID/g
Spleen [38]
  Drug uptake: 1.98 % ID/g
Liver [39]
  Drug uptake: 0.49 % ID/g
Spleen [40]
  Drug uptake: 1.35 % ID/g
Heart [41]
  Drug uptake: 8.87 % ID/g
Brain [42]
  Drug uptake: 1.89 % ID/g
Lung [43]
  Drug uptake: 1.96 % ID/g
Muscle tissue [44]
  Drug uptake: 2.92 % ID/g
Lung [45]
  Drug uptake: 1.4 % ID/g
Liver [46]
  Drug uptake: 0.46 % ID/g
Brain [47]
  Drug uptake: 4.55 % ID/g
Kidney [48]
  Drug uptake: 1.07 % ID/g
Tumour [49]
  Drug uptake: 3.16 % ID/g
